These results are taken from patent publication US8772029B2, “Modulation of oocyte meiotic progression and oocyte activation” (Northwestern University, priority 2011, dated 2014).

One assay has as its target T1, Emi2 (Mus musculus, UniProt Q8CDI2).
T1 construct: expressed in transfected cells; host or cells: mouse oocytes microinjected with in vitro transcribed cRNA (pIVT vector)
T1 sequence (Q8CDI2 1-640): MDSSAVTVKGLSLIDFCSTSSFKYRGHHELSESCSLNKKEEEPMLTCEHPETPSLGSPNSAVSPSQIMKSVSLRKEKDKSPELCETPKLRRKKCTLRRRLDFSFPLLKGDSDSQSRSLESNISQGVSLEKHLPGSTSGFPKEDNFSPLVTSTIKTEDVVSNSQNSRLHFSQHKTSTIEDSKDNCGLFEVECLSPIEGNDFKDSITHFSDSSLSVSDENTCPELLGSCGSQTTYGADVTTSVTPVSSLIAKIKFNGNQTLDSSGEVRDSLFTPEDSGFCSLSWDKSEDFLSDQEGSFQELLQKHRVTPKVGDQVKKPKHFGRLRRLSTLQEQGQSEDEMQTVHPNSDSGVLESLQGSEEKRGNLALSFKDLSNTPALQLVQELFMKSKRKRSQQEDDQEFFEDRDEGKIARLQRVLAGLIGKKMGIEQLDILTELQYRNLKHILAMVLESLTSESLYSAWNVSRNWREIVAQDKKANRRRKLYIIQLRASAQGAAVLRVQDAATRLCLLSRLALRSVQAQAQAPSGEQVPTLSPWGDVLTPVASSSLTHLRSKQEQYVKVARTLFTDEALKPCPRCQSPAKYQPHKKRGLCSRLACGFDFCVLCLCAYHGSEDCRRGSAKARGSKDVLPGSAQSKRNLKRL
The experiment in a line: MI arrest induced by Emi2 cRNA injected into GV oocytes, IVM with or without TPEN. The assay is classed as cell-based. The settings on record: IVM medium with 10 μM TPEN 14 h. As for the experimental part: Oocytes were denuded of cumulus cells and fixed in a microtubule stabilizing buffer (Ibanez et al., 2005) containing 2% formaldehyde and 1% Triton X-100 for 30 min at 37° C. Oocytes were washed and blocked in PBS containing 0.1M glycine, 3mg/mL BSA, 0.01% Tween 20, and 0.01% sodium azide for at least 1 h and were stored in blocking solution at 4° C. for up to 2 weeks. Oocytes were incubated with anti-tubulin antibody (1:100) for 1 h at 37C. followed by three washes in blocking solution. They were then incubated for 1 h in AlexaFluor-488 conjugated anti-mouse secondary antibody (5μg/mL) and rhodamine-phalloidin (2U/mL), washed three additional times, and mounted in VECTASHIELD with DAPI. Microscopy was performed using a Leica SP5 inverted laser-scanning confocal microscope with a 63x oil immersion objective (Leica Microsystems, Heidelberg, Germany). Images were processed using LAS AF software (Leica Microsystems).
Microinjection was performed essentially as previously described (Bernhardt et al., 2010). GV intact oocytes were collected and manually denuded of cumulus cells in L-15/FBS containing 0.2 mM IBMX, then transferred to drops of L-15 medium containing 0.05% (w/v) polyvinyl alcohol (PVA) and 0.5% (v/v) penicillin-streptomycin (Invitrogen) under light mineral oil on a heated stage for injection. […]

The subject of the next assay is GV oocytes. The experiment in a line: TPEN treatment of PDE-inhibitor arrested GV oocytes. In kind it is cell-based. The text has this:
In certain embodiments, zinc modulation is useful for overcoming earlier meiotic arrests. Normally, treatment of GV stage oocytes with broad-spectrum or PDE3-specific phosphodiesterase (PDE) inhibitors results in maintenance of GV arrest due to elevated cAMP levels. […] As such, limiting zinc availability could also be used to overcome GV arrest and allow progression through GVBD in clinical cases of GV arrest. The methods of the present invention are also useful as a secondary treatment for oocytes that remain GV arrested following conventional in vitro maturation, and could be of particular value for use in conjunction with in vitro follicle culture systems currently being developed for use in fertility preservation programs for patients undergoing fertility-threatening cancer treatments, in which methods for overcoming GV arrest are necessary (Xu et al 2006).

Another assay relates to MAPK. The experiment in a line: Myelin basic protein (MBP) kinase assay on single eggs (MAPK activity). To be noted: in vivo ovulated MII eggs, KSOM with 10 μM TPEN, 1 to 8 hours. The assay is classed as cell-based, mouse. On the procedure: Histone H1 and myelin basic protein (MBP) dual kinase assays were performed as previously described (Svoboda et al., 2000). Dried gels were exposed to Kodak BIOMAX MR films for 12 to 72 hours at −80° C. using Kodak intensifying screens; films were developed, scanned, and analyzed using ImageJ software. Assays were performed on single oocytes, and densitometric analysis is expressed relative to levels in control eggs.

The structures appear in SMILES notation. Entries after “also recorded” stand apart in the source; their conditions may differ.

In the case of `c1ccc(CN(CCN(Cc2ccccn2)Cc2ccccn2)Cc2ccccn2)nc1` [TPEN, N,N,N′,N′-tetrakis(2-pyridylmethyl)ethylenediamine], the “oocytes arrested at MI” value at Emi2 is on record as 44%. Further, the “progression to MII after transfer back to zinc replete medium” value with GV oocytes (PDE-inhibitor arrested GV oocytes that resumed meiosis under TPEN) is “a proportion of these oocytes progress to MII”. Also, the “meiotic resumption of GV-arrested oocytes” value in the assay on GV oocytes (oocytes held at GV stage with phosphodiesterase inhibitors, TPEN treatment) was “premature GV breakdown (GVBD) and meiotic progression; also recorded: premature meiotic progression and GV breakdown (GVBD)”. In addition, the “MAPK activity (MBP kinase) in MII eggs” value in the assay on MAPK is on record as “did not change appreciably”.
